# In article PMC10805834, “Population pharmacokinetic modeling of ilaprazole in healthy subjects and patients with duodenal ulcer in China” (Frontiers in Pharmacology, 2024):
# Like-named read-outs stand apart in the source and are kept apart here.
# Key:
# [1] = cited from earlier work
# [2] = parameters: method as in Sachs et al., 2006; Shin et al., 2014; details: ref Sachs et al., 2006; Shin et al., 2014; cited from earlier work
# [3] = Population pharmacokinetic (PopPK) model of ilaprazole, intravenous infusion, pooled data of 4 phase I and 1 phase IIa trials; format: in vivo, human; parameters: Disease status effect on Vp (Disease status = 1): scale not given here; key to ω^2 Vp, inter-individual variability / ω^2 CL, inter-individual variability: variance ω^2 of log-normal (exponential) inter-individual random effect η
# Source text: Data used to construct the PopPK model in current study were collected from 5 clinical trials of ilaprazole injection, including 4 phase I (No. CTR20132848, No. CTR20140147, No. CTR20150686, No. CTR20150685) clinical trials in healthy subjects, and 1 phase IIa (No. CTR20132846) clinical trial in patients with duodenal ulcer ([Wang et al., 2016a]; [Wang et al., 2016b]; [Wang et al., 2019]). All above studies included in this analysis were reviewed and approved by the Institutional Ethics Committee, registered in the China Clinical Trials Registry Center (chinadrugtrials.org.cn), and conducted in strict adherence to Good Clinical Practice and the Declaration of Helsinki.
# The single-dose phase I study (No. CTR20132848) was a randomized, open, four-cycle crossover trial in which 16 healthy subjects were randomized into four groups and were given either oral control drug or intravenous infusion of 5, 10 or 20 mg of ilaprazole during different cycles, after a 1-week washout period, and then separately after crossover. In the multiple-dose phase I study (No. CTR20140147), 10 healthy subjects received a 5-day continuous intravenous infusion of 10 mg ilaprazole once daily. The next studies (No. CTR20150686, No. CTR20150685) were conducted in healthy subjects with a single 30 mg intravenous infusion of ilaprazole, and a 20 mg loading dose combined with a 10 mg maintenance dose for a total of 3 days of intravenous infusion of ilaprazole. In the phase IIa study (No. CTR20132846), 20 patients with duodenal ulcer were randomized to receive a 20 mg loading dose plus a 10 mg maintenance dose of intravenous infusion of ilaprazole once daily or a positive control drug.
# Blood samples were collected for clinical pharmacokinetic analysis of ilaprazole in all studies, and the specific sampling designs are summarized in Table 1. To determine the concentration of ilaprazole in human plasma, a validated UPLC-MS/MS method was utilized, with the samples being processed by protein precipitation ([Wang et al., 2012]). The analytes were chromatographed on Acquity UPLC BEH C18 column (waters, MA, United States), and the detection was performed on Xevo-TQS tandem mass spectrometer coupled with an electro-spray ionization (ESI) source (waters, MA, United States). It is notable that ilaprazole concentration remained linear in the range of 1–1,000 ng/mL, with the lower limit of quantification of 1 ng/mL. After excluding 5 concentrations below the limit of quantification (BLQ) and 7 concentrations not detected (ND), a total of 1,560 plasma concentration from 58 subjects who received intravenous infusion of ilaprazole were included in the final PopPK analysis.
# Based on the pooled data from the clinical studies mentioned above, the PopPK model for ilaprazole was constructed using non-linear mixed-effects model of Phoenix NLME (version 8.3; Certara Inc, Princeton, NJ, United States). We developed the PopPK model using the first-order conditional estimation extended least squares (FOCE-ELS) method. The specific modeling steps are as follows.
# For the basic structural model, one-compartment and two-compartment models were tested to fit the data set according to the plasma concentration-time profile of ilaprazole, plotted on a semi-logarithmic scale. Based on the fact that the distribution of the population pharmacokinetic (PK) parameters essentially conforms to a log-normal distribution, the inter-individual variability in pharmacokinetic parameters was estimated by an exponential model (Eq. 1). Pik=Ppoppk*exp ηik (1)
# In Eq. 1, Pik represents the kth pharmacokinetic parameter for the ith individual, Ppopk represents the typical value of the parameter in population, and ηik depicts the deviation between the kth pharmacokinetic parameter of the ith individual and the typical value of the population (i.e., random effect), It is assumed that η follows a normal distribution centered at 0 with variance ω^2. […]
# [4] = parameters: method as in Shen et al., 2020; Jiang et al., 2021; details: rats; intravenous injection of 14C-ilaprazole; ref Shen et al., 2020; Jiang et al., 2021; cited from earlier work
# [5] = parameters: method as in Wang et al., 2019; details: ref Wang et al., 2019, cited from earlier work
# [6] = cited from earlier work; remark: listed apart in the source
smiles,measurement,setting,value
"COc1ccnc(C[S+]([O-])c2nc3cc(-n4cccc4)ccc3[nH]2)c1C (centres unmarked) [ilaprazole, 2-[[(4-methoxy-3-methyl)-2-pyridinyl]methyl-sulfinyl]-5-(1H-pyrol-1-yl)-1H-benzimidazole]",plasma protein binding capacity,[1],more than 97%
same,half-life (t1/2),[2],4.7 to 5.3 h
same,"CL, clearance of central compartment","[3]; bootstrap median (n = 1,000)",3.394 L/h
same,"V, volume of central compartment","[3]; bootstrap median (n = 1,000)",6.819 L
same,"Vp, volume of peripheral compartment","[3]; bootstrap median (n = 1,000)",5.480 L
same,WT effect on Vp,"[3]; bootstrap median (n = 1,000)",1.573
same,"σmult, residual variability","[3]; bootstrap median (n = 1,000)",0.182
same,"ω^2 CL, inter-individual variability","[3]; bootstrap median (n = 1,000)",0.057
same,"ω^2 V, inter-individual variability","[3]; bootstrap median (n = 1,000)",0.013
same,"ω^2 Vp, inter-individual variability","[3]; bootstrap median (n = 1,000)",0.033
same,Disease status effect on Vp (Disease status = 1),"[3]; bootstrap median (n = 1,000), duodenal ulcer",0.356
same,clearance,"[3]; both sexes, human, plasma, intravenous, final model estimate, read-out: CL, clearance of central compartment, typical value (converted)",56.6 mL/min
same,"ω^2 CL, inter-individual variability",[3]; final model estimate,0.059
same,"ω^2 V, inter-individual variability",[3]; final model estimate,0.013
same,"ω^2 Vp, inter-individual variability",[3]; final model estimate,0.032
same,Disease status effect on Vp (Disease status = 1),"[3]; final model estimate, Disease status = 1 for duodenal ulcer",0.356
same,"V, volume of central compartment, typical value","[3]; final model estimate, IV infusion, Chinese healthy subjects and duodenal ulcer patients",6.795 L
same,"Vp, volume of peripheral compartment, typical value","[3]; final model estimate, median weight 60.6 kg",5.544 L
same,"σmult, residual variability","[3]; final model estimate, multiplicative residual error",0.184
same,WT effect on Vp,"[3]; final model estimate, power exponent on Weight/60.6",1.545
same,radioactive signal in tissues/organs,[4],can still be observed in the stomach after 24 h
same,AUC0‐∞,[5]; duodenal ulcers patients,4900 ng·h/mL
same,Cmax,[5]; duodenal ulcers patients,"1,540 ng/mL"
same,AUC0‐∞,[5]; healthy subjects,7400 ng·h/mL
same,Cmax,[5]; healthy subjects,1871.3 ng/mL
same,LogP,[6],3.04
